In ChEMBL document CHEMBL1833934, “Discovery and optimization of 1-(4-(pyridin-2-yl)benzyl)imidazolidine-2,4-dione derivatives as a novel class of selective cannabinoid CB2 receptor agonists” (J Med Chem, 2011):

Key:
Rattus norvegicus = assay: Unbound Cmax in Wistar BRL rat plasma at 5 mg/kg, po; type: ADME, organism-based; set-up: dose 5 mg/kg, route oral; details: in vivo
[1] = Cmax in Wistar BRL rat plasma at 5 mg/kg, po; type: ADME, organism-based; set-up: dose 5 mg/kg, route oral
[2] = Oral bioavailability in Wistar BRL rat at 5 mg/kg; type: ADME, organism-based; details: in vivo
[3] = Dissociation constant, pKa of the compound; type: physicochemical
[4] = Volume of distribution at steady state in Wistar BRL rat plasma at 1 mg/kg, iv and 5 mg/kg, po; type: ADME, organism-based; details: read-out: Vdss
[5] = Lipophilicity, log D of the compound; type: physicochemical; details: octanol/water
[6] = Apparent permeability across human Caco2 cell membrane at 20 uM after 1 hr by LC-MS/MS analysis; details: Caco-2
in vivo [7] = details: Wistar BRL, rat, cerebrospinal fluid, po, 20 mg/kg
in vivo [8] = details: Wistar BRL, rat, brain, po, 20 mg/kg

Row | SMILES | pKa [3] | logD [5] | further results
1 | CC(C)CN1C(=O)CN(Cc2ccc(-c3cccc(CN4CCCCC4)n3)cc2)C1=O | 8.9 | 2.8 | fCmax (Rattus norvegicus): 0.006 µM; Cmax [1]: 20 nM; bioavailability [2]: 4%; Vd [4]: 5.4 L/kg; Papp at 1 h, 20 µM [6]: 21 ×10⁻⁶ cm/s
2 | CCCN1C(=O)CN(Cc2ccc(-c3cccc(CN4CCCCC4)n3)cc2)C1=O | 8.8 | 2.2 | 
3 | CCN1C(=O)CN(Cc2ccc(-c3cccc(CN4CCCCC4)n3)cc2)C1=O | 8.8 | 1.7 | 
4 | CN1C(=O)CN(Cc2ccc(-c3cccc(CN4CCCCC4)n3)cc2)C1=O | 8.7 | 1.3 | 
5 | CC(C)N1C(=O)CN(Cc2ccc(-c3cccc(CN4CCCCC4)n3)cc2)C1=O |  | 2.2 | 
6 | O=C1CN(Cc2ccc(-c3cccc(CN4CCCCC4)n3)cc2)C(=O)N1C1CC1 | 9 | 1.6 | 
7 | O=C1CN(Cc2ccc(-c3cccc(CN4CCCCC4)n3)cc2)C(=O)N1C1CCC1 |  | 2.7 | 
8 | O=C1CN(Cc2ccc(-c3cccc(CN4CCCCC4)n3)cc2)C(=O)N1CC1CC1 | 8.9 | 2.5 | 
9 | O=C1CN(Cc2ccc(-c3cccc(CN4CCCCC4)n3)cc2)C(=O)N1CC(F)F | 8.9 | 1.6 | 
10 | O=C1CN(Cc2ccc(-c3cccc(CN4CCCCC4)n3)cc2)C(=O)N1CC(F)(F)F |  | 1.9 | 
11 | CCN1C(=O)CN(Cc2ccc(-c3ccc(F)c(CN4CCCCC4)n3)cc2)C1=O | 8.5 | 2.1 | 
12 | CCCN1C(=O)CN(Cc2ccc(-c3ccc(F)c(CN4CCCCC4)n3)cc2)C1=O | 8.5 | 2.5 | 
13 | CC(C)CN1C(=O)CN(Cc2ccc(-c3ccc(F)c(CN4CCCCC4)n3)cc2)C1=O | 8.6 | 3.4 | 
14 | O=C1CN(Cc2ccc(-c3ccc(F)c(CN4CCCCC4)n3)cc2)C(=O)N1C1CC1 | 8.6 | 2 | 
15 | O=C1CN(Cc2ccc(-c3ccc(F)c(CN4CCCCC4)n3)cc2)C(=O)N1CC1CC1 | 8.5 | 2.8 | 
16 | O=C1CN(Cc2ccc(-c3ccc(F)c(CN4CCCCC4)n3)cc2)C(=O)N1CC1CCC1 | 8.6 | 3.5 | 
17 | O=C1CN(Cc2ccc(-c3ccc(F)c(CN4CCCCC4)n3)cc2)C(=O)N1CC(F)F | 9 | 1.9 | 
18 | CC(C)CN1C(=O)CN(Cc2ccc(-c3cccc(CN4CCCC(C)C4)n3)cc2)C1=O (centres undefined) | 8.7 | 3.4 | 
19 | CC(C)CN1C(=O)CN(Cc2ccc(-c3ccc(F)c(CN4CCCC(C)C4)n3)cc2)C1=O (centres undefined) | 8.4 | 3.9 | 
20 | CC(C)CN1C(=O)CN(Cc2ccc(-c3cccc(CN4CCCC(F)C4)n3)cc2)C1=O (centres undefined) | 7.4 | 3.7 | 
21 | CC(C)CN1C(=O)CN(Cc2ccc(-c3ccc(F)c(CN4CCCC(F)C4)n3)cc2)C1=O (centres undefined) | 7.2 | 4.1 | 
22 | CC(C)CN1C(=O)CN(Cc2ccc(-c3ccc(F)c(CN4CCOCC4)n3)cc2)C1=O | 6 | 3.4 | 
23 | CC(C)CN1C(=O)CN(Cc2ccc(-c3cccc(CN4CCCC(F)(F)C4)n3)cc2)C1=O | 5.3 | 4.5 | 
24 | CC(C)CN1C(=O)CN(Cc2ccc(-c3ccc(F)c(CN4CCCC(F)(F)C4)n3)cc2)C1=O | 5 | 4.7 | 
25 | CC(C)CN1C(=O)CN(Cc2ccc(-c3cccc(CN4CCS(=O)(=O)CC4)n3)cc2)C1=O | 3.7 | 3 | 
26 | CC(C)CN1C(=O)CN(Cc2ccc(-c3ccc(F)c(CN4CCS(=O)(=O)CC4)n3)cc2)C1=O | 3 | 3 | 
27 | CCN1C(=O)CN(Cc2ccc(-c3cccc(CC4CCCCC4)n3)cc2)C1=O |  | 5.6 | 
28 | O=C1CN(Cc2ccc(-c3ccc(F)c(CN4CCS(=O)(=O)CC4)n3)cc2)C(=O)N1C1CC1 | 2.8 | 1 | fCmax (Rattus norvegicus): 1.7 µM; Cmax [1]: 3800 nM; bioavailability [2]: 100%; Vd [4]: 0.94 L/kg; Papp at 1 h, 20 µM [6]: 17.3 ×10⁻⁶ cm/s; Kp at 4 h (in vivo [7]): 0.14; Kp at 4 h (in vivo [8]): 0.05
